Laboratory results from PubChem BioAssay AID1259407 (Chemical Carcinogenesis Research Information System (CCRIS), 2018).
The source made the active and inactive calls. How the calls were made is not given here.

System: CCRIS mutagenicity, Ames/micronucleus/aberration tests
Experiment: CCRIS mutagenicity studies
[1] = Test System: AMES SALMONELLA TYPHIMURIUM, Strain/Indicator: TA98, Metabolic Activation: NONE, Method: PREINCUBATION
[2] = Test System: AMES SALMONELLA TYPHIMURIUM, Strain/Indicator: TA100, Metabolic Activation: NONE, Method: PREINCUBATION
[3] = Test System: AMES SALMONELLA TYPHIMURIUM, Strain/Indicator: TA98, Metabolic Activation: HAMSTER, LIVER, S-9, AROCLOR 1254 (30%), Method: PREINCUBATION
[4] = Test System: AMES SALMONELLA TYPHIMURIUM, Strain/Indicator: TA98, Metabolic Activation: RAT, LIVER, S-9, AROCLOR 1254 (30%), Method: PREINCUBATION
[5] = Test System: AMES SALMONELLA TYPHIMURIUM, Strain/Indicator: TA100, Metabolic Activation: HAMSTER, LIVER, S-9, AROCLOR 1254 (30%), Method: PREINCUBATION
[6] = Test System: AMES SALMONELLA TYPHIMURIUM, Strain/Indicator: TA100, Metabolic Activation: RAT, LIVER, S-9, AROCLOR 1254 (30%), Method: PREINCUBATION
[7] = Test System: AMES SALMONELLA TYPHIMURIUM, Strain/Indicator: TA1535, Metabolic Activation: NONE, Method: PREINCUBATION
[8] = Test System: AMES SALMONELLA TYPHIMURIUM, Strain/Indicator: TA1537, Metabolic Activation: NONE, Method: PREINCUBATION
[9] = Test System: AMES SALMONELLA TYPHIMURIUM, Strain/Indicator: TA1538, Metabolic Activation: NONE, Method: PREINCUBATION

Question: Which results are given for `CC1=CC(=O)C(C(C)C)=CC1=O`?
Answer: mutagenic call [1]: inactive; negative; mutagenic call (Test System: AMES SALMONELLA TYPHIMURIUM, Strain/Indicator: TA98, Metabolic Activation: RAT, LIVER, S-9, PHENOBARBITAL AND 5,6-BENZOFLAVONE, Method: PREINCUBATION): inactive; negative; mutagenic call [2]: inactive; negative; mutagenic call (Test System: AMES SALMONELLA TYPHIMURIUM, Strain/Indicator: TA100, Metabolic Activation: RAT, LIVER, S-9, PHENOBARBITAL AND 5,6-BENZOFLAVONE, Method: PREINCUBATION): inactive; negative; mutagenic call (Test System: AMES SALMONELLA TYPHIMURIUM, Strain/Indicator: TA102, Metabolic Activation: NONE, Method: PREINCUBATION): inactive; negative; mutagenic call (Test System: AMES SALMONELLA TYPHIMURIUM, Strain/Indicator: TA102, Metabolic Activation: RAT, LIVER, S-9, PHENOBARBITAL AND 5,6-BENZOFLAVONE, Method: PREINCUBATION): inactive; negative; mutagenic call (Test System: AMES SALMONELLA TYPHIMURIUM, Strain/Indicator: TA104, Metabolic Activation: RAT, LIVER, S-9, PHENOBARBITAL AND 5,6-BENZOFLAVONE, Method: PREINCUBATION): inactive; negative; mutagenic call (Test System: AMES SALMONELLA TYPHIMURIUM, Strain/Indicator: TA2637, Metabolic Activation: NONE, Method: PREINCUBATION): active; positive; mutagenic call (Test System: AMES SALMONELLA TYPHIMURIUM, Strain/Indicator: TA2637, Metabolic Activation: RAT, LIVER, S-9, PHENOBARBITAL AND 5,6-BENZOFLAVONE, Method: PREINCUBATION): inactive; negative

Question: With `Cc1ccc(NCC2(O)OC[C@@H](O)[C@@H](O)[C@@H]2O)cc1` (some centres undefined) as the molecule, how does the mutagenic call (Test System: AMES SALMONELLA TYPHIMURIUM, Strain/Indicator: TA100, Metabolic Activation: NONE, Method: LIQUID INCUBATION) read?
Answer: inactive; negative

Question: For `Cc1ccc2ccc3c(ccc4c5cccc(C)c5ccc43)c2c1`, which mutagenic call (Test System: AMES SALMONELLA TYPHIMURIUM, Strain/Indicator: TA97, Metabolic Activation: RAT, LIVER, S-9, AROCLOR 1254, Method: STANDARD PLATE) is on record?
Answer: inactive; negative

Question: What about the mutagenic call (Test System: AMES SALMONELLA TYPHIMURIUM, Strain/Indicator: TA98, Metabolic Activation: RAT, LIVER, S-9, AROCLOR 1254, Method: STANDARD PLATE) of the same molecule?
Answer: inactive; negative

Question: And the mutagenic call (Test System: AMES SALMONELLA TYPHIMURIUM, Strain/Indicator: TA100, Metabolic Activation: RAT, LIVER, S-9, AROCLOR 1254, Method: STANDARD PLATE)?
Answer: inactive; negative

Question: What about the mutagenic call (Test System: AMES SALMONELLA TYPHIMURIUM, Strain/Indicator: TA102, Metabolic Activation: RAT, LIVER, S-9, AROCLOR 1254, Method: STANDARD PLATE) of the same molecule?
Answer: inactive; negative

Question: And the mutagenic call (Test System: AMES SALMONELLA TYPHIMURIUM, Strain/Indicator: TA104, Metabolic Activation: RAT, LIVER, S-9, AROCLOR 1254, Method: STANDARD PLATE)?
Answer: inactive; negative

Question: And the mutagenic call (Test System: AMES SALMONELLA TYPHIMURIUM, Strain/Indicator: TA1537, Metabolic Activation: RAT, LIVER, S-9, AROCLOR 1254, Method: STANDARD PLATE)?
Answer: inactive; negative

Question: What does the source list for `c1ccc2cc(Nc3ccc(Nc4ccc5ccccc5c4)cc3)ccc2c1`?
Answer: mutagenic call (End Point: IN VITRO CHROMOSOMAL ABERRATIONS, Test System: CHINESE HAMSTER LUNG CELLS (CHL), Metabolic Activation: NONE): active; positive (structural changes); mutagenic call (End Point: IN VITRO CHROMOSOMAL ABERRATIONS, Test System: CHINESE HAMSTER OVARY CELLS (CHO), Metabolic Activation: NONE): inactive; negative; mutagenic call (End Point: IN VITRO CHROMOSOMAL ABERRATIONS, Test System: CHINESE HAMSTER OVARY CELLS (CHO), Metabolic Activation: RAT, LIVER, S-9, AROCLOR 1254): inactive; negative; mutagenic call (End Point: IN VITRO CHROMOSOMAL ABERRATIONS, Test System: CHL CELLS, Metabolic Activation: S-9): active; positive (structural changes); weak response; mutagenic call (End Point: IN VITRO CHROMOSOMAL ABERRATIONS, Test System: CHO CELLS, Metabolic Activation: S-9): active; positive (structural changes); mutagenic call [3]: active; positive; mutagenic call [1]: inactive; negative; mutagenic call (Test System: AMES SALMONELLA TYPHIMURIUM, Strain/Indicator: TA98, Metabolic Activation: RAT LIVER S-9, PHENOBARBITAL AND BETA-NAPHTHOFLAVONE, Method: PREINCUBATION): inactive; negative; mutagenic call [4]: inactive; negative; mutagenic call [5]: inactive; negative; mutagenic call [2]: inactive; negative; mutagenic call (Test System: AMES SALMONELLA TYPHIMURIUM, Strain/Indicator: TA100, Metabolic Activation: RAT LIVER S-9, PHENOBARBITAL AND BETA-NAPHTHOFLAVONE, Method: PREINCUBATION): inactive; negative; mutagenic call [6]: inactive; negative; mutagenic call [7]: inactive; negative; mutagenic call (Test System: AMES SALMONELLA TYPHIMURIUM, Strain/Indicator: TA1535, Metabolic Activation: RAT LIVER S-9, PHENOBARBITAL AND BETA-NAPHTHOFLAVONE, Method: PREINCUBATION): inactive; negative; mutagenic call [8]: inactive; negative; mutagenic call (Test System: AMES SALMONELLA TYPHIMURIUM, Strain/Indicator: TA1537, Metabolic Activation: RAT LIVER S-9, PHENOBARBITAL AND BETA-NAPHTHOFLAVONE, Method: PREINCUBATION): inactive; negative; mutagenic call [9]: inactive; negative; mutagenic call (Test System: AMES SALMONELLA TYPHIMURIUM, Strain/Indicator: TA1538, Metabolic Activation: RAT LIVER S-9, PHENOBARBITAL AND BETA-NAPHTHOFLAVONE, Method: PREINCUBATION): inactive; negative; mutagenic call (Test System: E.COLI, Strain/Indicator: WP2UVRA, Metabolic Activation: NONE, Method: PREINCUBATION): inactive; negative; mutagenic call (Test System: E.COLI, Strain/Indicator: WP2UVRA, Metabolic Activation: RAT LIVER S-9, PHENOBARBITAL AND BETA-NAPHTHOFLAVONE, Method: PREINCUBATION): inactive; negative

Question: How did the mutagenic call [3] turn out when `CC(C)(Cl)[N+](=O)[O-]` was run?
Answer: inactive; negative

Question: What about the mutagenic call [1] of the same molecule?
Answer: inactive; negative

Question: What about the mutagenic call [4] of the same molecule?
Answer: inactive; negative

Question: What about the mutagenic call [5] of the same molecule?
Answer: inactive; negative

Question: And the mutagenic call [2]?
Answer: active; positive

Question: And the mutagenic call [6]?
Answer: inactive; negative

Question: What about the mutagenic call (Test System: AMES SALMONELLA TYPHIMURIUM, Strain/Indicator: TA1535, Metabolic Activation: HAMSTER, LIVER, S-9, AROCLOR 1254 (30%), Method: PREINCUBATION) of the same molecule?
Answer: inactive; negative

Question: And the mutagenic call [7]?
Answer: inactive; negative

Question: What about the mutagenic call (Test System: AMES SALMONELLA TYPHIMURIUM, Strain/Indicator: TA1535, Metabolic Activation: RAT, LIVER, S-9, AROCLOR 1254 (30%), Method: PREINCUBATION) of the same molecule?
Answer: inactive; negative

Question: And the mutagenic call (Test System: AMES SALMONELLA TYPHIMURIUM, Strain/Indicator: TA1538, Metabolic Activation: HAMSTER, LIVER, S-9, AROCLOR 1254 (30%), Method: PREINCUBATION)?
Answer: inactive; negative

Question: What about the mutagenic call [9] of the same molecule?
Answer: inactive; negative

Question: And the mutagenic call (Test System: AMES SALMONELLA TYPHIMURIUM, Strain/Indicator: TA1538, Metabolic Activation: RAT, LIVER, S-9, AROCLOR 1254 (30%), Method: PREINCUBATION)?
Answer: inactive; negative

Question: `CN(c1nccc(=O)[nH]1)C1CCN(c2nc3ccccc3n2Cc2ccc(F)cc2)CC1` was tested. Which mutagenic call [1] did it give?
Answer: inactive; negative

Question: And the mutagenic call (Test System: AMES SALMONELLA TYPHIMURIUM, Strain/Indicator: TA98, Metabolic Activation: RAT LIVER S-9, PHENOBARBITAL AND 5,6-BENZOFLAVONE, Method: PREINCUBATION)?
Answer: inactive; negative

Question: And the mutagenic call [2]?
Answer: inactive; negative

Question: And the mutagenic call (Test System: AMES SALMONELLA TYPHIMURIUM, Strain/Indicator: TA100, Metabolic Activation: RAT LIVER S-9, PHENOBARBITAL AND 5,6-BENZOFLAVONE, Method: PREINCUBATION)?
Answer: inactive; negative

Question: And the mutagenic call [7]?
Answer: inactive; negative

Question: What about the mutagenic call (Test System: AMES SALMONELLA TYPHIMURIUM, Strain/Indicator: TA1535, Metabolic Activation: RAT LIVER S-9, PHENOBARBITAL AND 5,6-BENZOFLAVONE, Method: PREINCUBATION) of the same molecule?
Answer: inactive; negative

Question: What about the mutagenic call [8] of the same molecule?
Answer: inactive; negative

Question: And the mutagenic call (Test System: AMES SALMONELLA TYPHIMURIUM, Strain/Indicator: TA1537, Metabolic Activation: RAT LIVER S-9, PHENOBARBITAL AND 5,6-BENZOFLAVONE, Method: PREINCUBATION)?
Answer: inactive; negative

Question: And the mutagenic call (Test System: E.COLI, Strain/Indicator: WP2 UVRA, Metabolic Activation: NONE, Method: PREINCUBATION)?
Answer: inactive; negative

Question: What about the mutagenic call (Test System: E.COLI, Strain/Indicator: WP2 UVRA, Metabolic Activation: RAT LIVER S-9, PHENOBARBITAL AND 5,6-BENZOFLAVONE, Method: PREINCUBATION) of the same molecule?
Answer: inactive; negative
